Measurements taken from patent US20080213223A1, “Systemic viral/ligand gene delivery system and gene therapy” (SynerGene Therapeutics, Inc., priority 1998, published 2008).

Assays:
[1] = test system: B16 mouse melanoma lung metastases; experiment: B16 mouse melanoma lung metastases model with cisplatin; type: in vivo, C57/BL/6 mice; conditions: agent alone
Source text: FIGS. 5A-H. Chemosensitization of B16 mouse lung metastases to cisplatin (CDDP) by systemically delivered, tumor-targeted adenoviral-p53. The metastases were induced in normal, syngeneic C57/Bl/6 mice by the intravenous injection of 1×10^5 cells. Four days later treatment was begun. Tf-Adp53 and control Tf-AdLacZ were produced at the ratio of 1.5×10^5 Tf molecules/virion. 1×10^10 viral particles/mouse/injection (equivalent to 3×10^8 pfu) of either Adp53, Tf-Adp53 or Tf-AdLacZ were i.v. administered 3 times/week to a total of 12-13 doses. CDDP was intraperitoneally injected at 3-5 mg/kg every 2-4 days for a total of 8-13 doses. The lungs were excised from the animals after one round of treatment. Lungs from animal treated with: No treatment (FIGS. 5A and 5E); CDDP alone (FIG. 5B); untargetted Ad-p53 plus CDDP (FIG. 5C); Tf-LacZ plus CDDP (FIG. 5F); Tf-Adp53 alone (FIG. 5G); Tf-Adp53 plus CDDP (FIGS. 5D and 5H).
The ability of the ligand-targeted, viral p53 delivery system to sensitize tumor cells to chemotherapy in an immune competent animal model was examined. The model chosen for these studies was the B16 mouse melanoma lung metastases model. In multiple experiments, B16 cells were injected, via the tail vein into immune-competent C57/BL/6 mice. In this model, tumor colonies in the lung are easily visible within two-three weeks, due to the expression of melanin by the tumor cells. […]

[2] = test system: MDA-MB-435 xenograft tumors; experiment: MDA-MB-435 xenograft tumor growth with docetaxel (Taxotere); type: in vivo, athymic nude (NCr nu-nu) mice; conditions: agent alone
Source text: Additionally, since chemotherapy is often the treatment of choice for breast cancer, this experiment tested the ability of the delivery system of this invention to sensitize established human breast cancer xenograft tumors to the commonly used chemotherapeutic agent docetaxel (Taxotere). Xenografts were induced in 4-6 week old female athymic nude (NCr nu-nu) mice by the subcutaneous injection of 2.5×10^6 MDA-MB-435 cells in the mammary fat pad of each animal. Tumors were allowed to develop to a size of 40-50 mm^3. The targeted adenovirus, designated Tf Adp53, was prepared by mixing transferrin with adenovirus carrying DNA encoding wt p53 as described in Example 1. The animals were divided into five groups: (i) Untreated (−) Taxotere; (ii) Taxotere alone, (iii) Untargeted Adp53 (+) Taxotere; (iv) Targeted Adp53 (−) Taxotere; (v) Targeted Adp53 (+) Taxotere. The mice were i.v. injected, via the tail vein, every three to four days with 5×10^10 pt/mouse/injection of either targeted (an admixture of Tf ligand and virus was injected) or untargeted (no ligand) Adp53. A total of 12 injections were administered. The day after the initial viral injection, drug treatment was started. The animals were given Taxotere i.v. at a dose of 7.5 mg/kg every three or four days to a total of 11 injections. The tumor sizes were measured weekly in a blinded manner on a total of 6-8 tumors/group. […]

| Compound | effect on lung tumor colonies compared to untreated animals [1] | effect on tumor growth [2] |
| --- | --- | --- |
| [NH2][Pt]([NH2])([Cl])[Cl] [CDDP, cisplatin] | some effect | – |
| CC(=O)O[C@@]12CO[C@@H]1C[C@H](O)[C@@]1(C)C(=O)[C@H](O)C3=C(C)[C@@H](OC(=O)[C@H](O)[C@@H](NC(=O)OC(C)(C)C)c4ccccc4)C[C@@](O)([C@@H](OC(=O)c4ccccc4)[C@H]21)C3(C)C [Taxotere, docetaxel] | – | some growth inhibition |
